Structures can show the parent of a compound that is named as a salt. Where two headings read alike, the source gives them in different places.
Experiments:
[1] = tested on: sebum excretion; conditions: topical, cited from earlier work
[2] = tested on: animal sebaceous glands; conditions: female vs male; cited from earlier work
[3] = tested on: hair growth; conditions: intact males; Table 3, Group VI vs. Group X; cited from earlier work
[4] = tested on: hamster flank organ hair growth; test: Inhibition of hair growth: hamster flank organ hair mass after thirteen topical applications; type: in vivo, male intact Golden Syrian hamsters; conditions: 13 applications; for inhibition at 5 % strength / inhibition at 10 % strength / inhibition at 20 % strength / inhibition at 30 % strength: Mesocricetus auratus, pH 7-8, read-out: % Inhibition (± SEM)
Method: A vehicle or carrier was prepared having the following composition:
A group of male intact Golden Syrian hamsters was provided. These animals were considered acceptable models for human beard hair growth in that they display oval shaped flank organs, one on each side, each about 8 mm. in major diameter, which grow thick black and coarse hair similar to human beard hair. These organs produce hair in response to androgens in the hamster. The flank organs of each hamster were depilated by applying a thioglycolate based chemical depilatory (Surgex), and to one organ of each animal was applied 10-25 μl. of vehicle alone once a day, while to the other organ of each animal was applied an equal amount of vehicle containing the analog. After thirteen applications (one application per day for five days a week), the flank organs were shaved and the amount of recovered hair (hair mass) from each was weighed. Percent-reduction of hair growth was calculated by subtracting the hair mass (mg) value of the test compound treated side from the hair mass value of the vehicle treated side; the delta value obtained was then divided by the hair mass value of the vehicle treated side, and the resultant number was multiplied by 100.

[5] = tested on: hamster flank organ; conditions: topical; cited from earlier work
[6] = 5% by weight, 10-25 μl once a day, pH 7-8
[7] = 10% by weight, 10-25 μl once a day, pH 7-8
[8] = 20% by weight, 10-25 μl once a day, pH 7-8
[9] = 30% by weight, 10-25 μl once a day, pH 7-8
[10] = 5% by weight, 10-25 μl once a day, vs vehicle treated side
[11] = 10% by weight, 10-25 μl once a day, vs vehicle treated side
[12] = 20% by weight, 10-25 μl once a day, vs vehicle treated side
[13] = 30% by weight, 10-25 μl once a day, vs vehicle treated side

SMILES	reducing sebum excretion rates ([1]; females)	reducing sebum excretion rates ([1]; males)	inhibition of testosterone metabolism and lipogenesis in sebaceous glands [2]	effect on inhibition of hair growth [3]	Hamster Flank Organ Hair Mass, Treated (± SEM) [4, 6]	Hamster Flank Organ Hair Mass, Treated (± SEM) [4, 7]	Hamster Flank Organ Hair Mass, Treated (± SEM) [4, 8]	Hamster Flank Organ Hair Mass, Treated (± SEM) [4, 9]	inhibition at 5 % strength [4, 10] [%]	inhibition at 10 % strength [4, 11] [%]	inhibition at 20 % strength [4, 12] [%]	inhibition at 30 % strength [4, 13] [%]	Hamster Flank Organ Hair Mass, Treated (± SEM) ([4]; 10% comparison composition, pH 4.0)	% Inhibition (± SEM) ([4]; 10% comparison composition, vs vehicle treated side, pH 4.0) [%]	reduction in hair growth of the hamster flank organ [5]	reduction in the size of the flank organ [5]
CC(=O)[C@H]1CC[C@H]2[C@@H]3CCC4=CC(=O)CC[C@]4(C)[C@H]3CC[C@]12C [progesterone]	effective in reducing sebum excretion rates in females	without effect in males	effective in the female but not in the male	doubtful												
CC(C)(CO)[C@@H](O)C(=O)NCCC(=O)O [PTA, DPantothenic acid hemicalcium salt]					.738 ± .13 mg	.424 ± .11 mg	.270 ± .12 mg	.160 ± .06 mg	67.3 ± 5.81	71.3 ± 8.96	85.8 ± 5.75	92.7 ± 2.76				
CC(C)(CO)[C@H](O)C(=O)NCCC(=O)[O-].[Na+] [PTAss, D-Pantothenic acid monosodium salt]					.644 ± .15 mg	.364 ± .10 mg	.500 ± .10 mg	.396 ± .95 mg	72.6 ± 5.18	80.1 ± 4.38	74.2 ± 4.83	79.8 ± 4.75				
CC(C)(CO)C(O)C(=O)NCCCO (racemic) [DL-PTYA, D, or DL, Pantothenyl alcohol]					2.670 ± .23 mg	1.490 ± .30 mg	1.450 ± .21 mg	.708 ± .13 mg	-8.28 ± 7.51	40.3 ± 7.35	51.1 ± 7.49	70.8 ± 5.95				
NCCC[C@](N)(C(=O)O)C(F)F [DFMO, α-difluoromethyl ornithine, reference compound]													.631 ± .12 mg	66.10 ± 7.05		
CC(C)(CO)[C@@H](O)C(=O)NCCCO [D-PTYA, D, or DL, Pantothenyl alcohol]					1.069 ± .15 mg	1.095 ± .32 mg	.899 ± .30 mg	1.069 ± .26 mg	55.9 ± 4.32	48.3 ± 11	31.4 ± 13.8	34.8 ± 8.49				
CCC[C@]1(O)CC[C@H]2[C@@H]3CCC4=CC(=O)CC[C@]4(C)[C@H]3CC[C@@]21C [17β-hydroxy-17α-propylandrost-4-en-3-one]															substantial reduction in hair growth	reduction in the size of the flank organ
